Measured values reported in PubChem BioAssay (NCI).
Where “and” joins values, the source holds several entries; their conditions need not be identical. Equal entries are not always repeated.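 48-hour exposure; five concentrations; linearly interpolated endpoints. Abbreviation: GI50, concentration required for 50% inhibition of growth. The concentration for full growth arrest is given as TGI.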

Experiments:
Assay in all cases: NCI tumour cell line growth inhibition, 48 h
[1] = tested on: M14 melanoma
[2] = tested on: RXF 393 renal
[3] = tested on: LOX IMVI melanoma
[4] = tested on: UACC-62 melanoma
[5] = tested on: TK-10 renal
[6] = tested on: ACHN renal
[7] = tested on: SNB-75 CNS
[8] = tested on: DU-145 prostate

Compound	GI50 [1]	TGI [1]	GI50 [2]	TGI [2]	GI50 [3]	TGI [3]	GI50 [4]	TGI [4]	GI50 [5]	TGI [5]	GI50 [6]	TGI [6]	GI50 [7]	TGI [7]	GI50 [8]	TGI [8]
Cc1cc(N(CCCNc2ccnc3cc(Cl)ccc23)Cc2ccc3c(c2)OCO3)nc(N2CCCCC2)n1	1.77 µM	3.47 µM	1.52 µM	3.12 µM	1.69 µM	3.29 µM	1.91 µM	3.64 µM	1.91 µM	4.01 µM	2.32 µM	4.84 µM	1.47 µM	3.33 µM	–	–
C=C(CNC(=O)c1ccccc1)c1ccc(C(=O)Nc2ccccc2N)cc1	–	–	3.08 µM	> 100 µM	6.1 µM	73.2 µM	1.75 µM	11.4 µM	2.12 µM	13.6 µM	3.86 µM	> 100 µM	–	–	4.08 µM	> 100 µM
Nc1c(C(=O)N/N=C/c2ccc(-c3cc(Cl)c(Cl)cc3Cl)o2)cnn1-c1ccnc2c(C(F)(F)F)cccc12	5.28 µM	> 100 µM	–	–	4.37 µM	> 100 µM	3.94 µM	> 100 µM	3.48 µM	> 100 µM	3.55 µM	> 100 µM	4.01 µM	53 µM	3.56 µM	> 100 µM
N#Cc1nc2c(S(=O)(=O)c3ccccc3)c(N)n(Cc3ccc(Cl)cc3)c2nc1C#N	20.9 µM	> 50 µM	2.45 µM	13.9 µM	0.932 µM	4.17 µM	7.51 µM	18.1 µM	12.2 µM	26.5 µM	4.23 µM	13 µM	–	–	15 µM	> 50 µM
Cn1cnc2c(F)c(Nc3ccc(Br)cc3F)c(C(=O)NOCCO)cc21	0.0175 µM and 0.0233 µM	0.307 µM	0.455 µM and 4.39 µM	> 96.2 µM	0.0936 µM and 0.399 µM	> 4.03 µM and 42.8 µM	0.0174 µM and 0.0234 µM	0.228 µM and 0.664 µM	3.07 µM and 1.34 µM	> 100 µM	10.5 µM	> 100 µM	–	–	51.1 µM	> 100 µM
Cc1ccc(Nc2cc(C)nc(NCCCNc3ccnc4cc(Cl)ccc34)n2)cc1	1.56 µM	3.33 µM	–	–	1.38 µM	2.83 µM	1.68 µM	3.19 µM	1.81 µM	3.29 µM	1.54 µM	2.91 µM	1.3 µM	2.56 µM	1.97 µM	4.14 µM
CC(C)C[C@H](NC(=O)[C@H](Cc1cccc2ccccc12)NS(=O)(=O)c1cccc2cccnc12)B(O)O	–	–	0.00919 µM	0.0273 µM and < 0.0237 µM	0.00137 µM	0.0226 µM and < 0.0199 µM	0.00488 µM	0.0385 µM and 0.125 µM	0.036 µM	0.351 µM	–	> 38.8 µM	–	–	–	0.524 µM
COc1c(Cl)ccc2c(-c3nc4cc(Cl)c(F)cc4s3)cc(=O)oc12	26.7 µM	> 100 µM	5.83 µM	17.7 µM	–	–	16.5 µM	53.7 µM	17.4 µM	46.1 µM	4 µM	17.2 µM	1.56 µM	3.28 µM	13.9 µM	39.9 µM
Fc1ccc2c(c1)C1=C(CO2)C(c2ccc(Cl)cc2)NC(=S)N1 (configuration not stated)	24 µM	57.5 µM	–	–	23 µM	61.7 µM	18.4 µM	63.7 µM	59.1 µM	> 100 µM	37.4 µM	> 100 µM	96.8 µM	> 100 µM	28 µM	> 100 µM
COc1ccc(Cn2cc3c(c2-c2cc(OC)c(OC)c(OC)c2)CCc2cnoc2-3)cc1N	0.0507 µM	> 100 µM	0.0319 µM	> 100 µM	0.0641 µM	> 100 µM	0.0447 µM	> 86.9 µM	0.0689 µM	> 100 µM	0.0731 µM	> 100 µM	–	–	0.0343 µM	0.355 µM
CCCCCCCCCCCCCCCCCCOc1ccccc1CC(=O)NCC[N+](C)(C)C	3.14 µM	> 100 µM	–	–	–	–	6.55 µM	62.5 µM	2.27 µM	6.48 µM	12.9 µM	49.2 µM	1.98 µM	8.9 µM	4.97 µM	39.2 µM
COC(=O)[C@H](C)NC(=O)[C@@H](OC)[C@@H]1Cc2cc3cc(OC4CC(OC5CC(O)C(O)C(C)O5)C(O)C(C)O4)c(C)c(O)c3c(O)c2C(=O)[C@H]1OC1CC(OC2CC(OC3CC(C)(O)C(O)C(C)O3)C(O)C(C)O2)C(O)C(C)O1 (some centres not stated)	0.113 µM	1.41 µM	–	–	0.0308 µM	> 50 µM	0.0417 µM	0.171 µM	0.336 µM	> 50 µM	0.119 µM	2.23 µM	0.0911 µM	0.774 µM	0.146 µM	> 50 µM
CN(CC(=O)O)Cc1oc(CO)cc(=O)c1O	–	> 100 µM	–	> 100 µM	–	> 100 µM	–	> 100 µM	–	> 100 µM	–	> 100 µM	–	> 100 µM	–	–
